This note sets out measurements from article PMC8802628, “Selective activation of PFKL suppresses the phagocytic oxidative burst” (Cell, 2021).

Assay [1] deals with primary human monocytes and human monocytic THP-1 cells. Briefly: GSDMD-dependent pyroptosis, LDH release. The assay is classed as cell-based. The conditions noted are these: induced by nigericin, cytoplasmic LPS, or cytoplasmic poly(dA-dT). As to the method:
Primary human monocytes were primed with 1 μg/mL ultrapure LPS and 1μg/mL Pam3CSK4 for 3 h. THP-1 cells were primed with 1 μg/mL Pam3CSK4 for 4 h. Primed cells (1 × 10^5) were treated for 1 h with DMSO vehicle, 5 μM LDC7559 (unless indicated otherwise), 10 μM MCC950, or 50 μM VX765, and then for 1 h with 10 μg/mL nigericin, or 25 μg/mL LPS (electroporated using the NEON electroporation system; ThermoFisher Scientific), or they were transfected over 3 h with 1 μg/mL poly(dA-dT) using lipofectamine 2000 (0.5 μL/well).
(§1) LDH released into the culture medium was measured 1-3 h post-activation using a CellTox Green Cytotoxicity assay (Promega). IL-1β secretion was measured using a MSD Cytokine Assay, 96-well multi-array Tissue Culture Kit (Meso Scale Discovery). For immunoblotting, monocytes (2 × 10^6) were treated with 10-50 μM LCD7559 or 50 μM VX765 and electroporated with 25 μg/mL LPS using the NEON electroporation system. Cells were lysed after 1 h using lysis buffer (50 mM Tris pH 7.4, 150 mM NaCl, 10% glycerol, 1% NP-40, 1 mM MgCl and 1X Roche cOmplete protease inhibitor cocktail) and protein concentration was determined via BCA protein assay (Peirce). Antibodies for immunoblotting were GSDMD (L60, Cell Signaling Technologies), cleaved GSDMD-Asp275 (E7H9G, Cell Signaling Technologies) and GAPDH (14C10, Cell Signaling Technologies).
Background: LDH in the medium is a marker of cell lysis.

A further assay concerns the target T1, GSDMD (Homo sapiens, UniProt P57764).
T1 sequence (P57764 1-484): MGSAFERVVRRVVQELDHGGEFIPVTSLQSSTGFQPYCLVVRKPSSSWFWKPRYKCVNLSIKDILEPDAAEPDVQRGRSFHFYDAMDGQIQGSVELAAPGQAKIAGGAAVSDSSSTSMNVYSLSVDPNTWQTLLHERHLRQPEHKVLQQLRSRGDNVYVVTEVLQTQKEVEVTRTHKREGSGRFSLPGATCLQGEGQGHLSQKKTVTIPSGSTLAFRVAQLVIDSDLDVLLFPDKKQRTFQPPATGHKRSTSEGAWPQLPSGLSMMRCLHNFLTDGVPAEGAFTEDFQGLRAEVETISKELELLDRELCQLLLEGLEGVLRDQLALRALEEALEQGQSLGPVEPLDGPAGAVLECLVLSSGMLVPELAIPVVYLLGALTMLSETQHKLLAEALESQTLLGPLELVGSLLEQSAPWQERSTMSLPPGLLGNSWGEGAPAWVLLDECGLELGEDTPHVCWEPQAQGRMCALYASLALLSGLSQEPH
Briefly: LPS-induced cleavage of GSDMD in monocytes (western blot). As to conditions: monocytes electroporated with LPS. The class given is cell-based. Further details: endogenous in cells; host or cells: primary human monocytes electroporated with LPS. As to the method:
as §1

The next assay deals with T2, PFKL (Homo sapiens, UniProt P17858).
T2 construct: endogenous in cells; host or cells: THP-1 cell lysate
T2 sequence (P17858 2-780 limits assumed): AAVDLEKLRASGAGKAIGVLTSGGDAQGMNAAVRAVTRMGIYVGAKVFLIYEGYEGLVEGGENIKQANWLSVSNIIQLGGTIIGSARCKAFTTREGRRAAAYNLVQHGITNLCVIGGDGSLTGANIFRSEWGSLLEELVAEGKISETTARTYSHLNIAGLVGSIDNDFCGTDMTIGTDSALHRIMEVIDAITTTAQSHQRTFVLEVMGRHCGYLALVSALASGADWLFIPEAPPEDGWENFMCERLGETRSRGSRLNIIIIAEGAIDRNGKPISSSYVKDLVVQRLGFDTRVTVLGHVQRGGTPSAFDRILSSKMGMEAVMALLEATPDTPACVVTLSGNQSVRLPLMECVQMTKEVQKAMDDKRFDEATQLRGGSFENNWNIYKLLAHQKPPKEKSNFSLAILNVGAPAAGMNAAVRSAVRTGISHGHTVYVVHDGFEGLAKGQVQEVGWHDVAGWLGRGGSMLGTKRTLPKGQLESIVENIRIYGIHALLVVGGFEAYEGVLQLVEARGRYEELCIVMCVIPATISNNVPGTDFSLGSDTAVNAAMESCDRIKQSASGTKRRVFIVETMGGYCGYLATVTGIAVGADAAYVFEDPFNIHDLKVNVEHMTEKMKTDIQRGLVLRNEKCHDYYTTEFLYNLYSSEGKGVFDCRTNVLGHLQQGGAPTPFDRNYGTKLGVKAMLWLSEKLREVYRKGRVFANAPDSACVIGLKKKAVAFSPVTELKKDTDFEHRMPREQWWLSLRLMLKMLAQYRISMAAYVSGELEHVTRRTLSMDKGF
Briefly: Thermal shift of PFKL by immunoblotting in THP-1 lysates. The class given is binding. As to the method: Figure 2. Chemoproteomic analysis of the global interactors and specific targets of NA-11 (A) Dual chemoproteomic workflow. (B) TPP analysis of neutrophil lysates. Graph plots the ΔTm induced by NA-11 between 37°C and 65°C versus log2(fold change in the area under the melting curve from 44°C to 58°C). Each circle represents a different protein. Top hits with an upward shift in Tm are boxed. p values were determined by paired Student’s t test. (C) Percentage of PMNs undergoing PMA-induced NETosis. Bars show the mean ± SD of cells from three donors. (D) Structures of PALP1 and PALP6. […] Dot size indicates the p values from the affinity pull-downs (paired Student’s t test). […] (F) Western blots of THP-1 lysates heated for 3 min. Graph indicates PFKL band intensities quantified using ImageJ. Data are the mean ± SD of three independent experiments. See also Figures S2 and S3.
We validated the interaction of NA-11 with PFKL in THP-1 cells by immunoblotting PFKL in TPP samples (Figure 2F). […] PDE6δ sustains Ras signaling, which activates the Raf-MEK (mitogen-activated ERK kinase)-ERK (extracellular signal-regulated kinase) pathway ([Chandra et al., 2011]). […] Thus, NA-11 must not inhibit NETosis by compromising the MEK-ERK signaling cascade downstream of PDE6δ.
(In general: Immunoblotting shows a protein as a band on a membrane.)

For `COc1ccccc1-c1cc2n(n1)Cc1ccc(NC(C)=O)cc1OC2` [LDC7559, reference compound], the “GSDMD-dependent pyroptosis (LDH release)” value in assay [1] is on record as “did not alter GSDMD-dependent pyroptosis”. Moreover, on GSDMD, the “LPS-induced cleavage of GSDMD” value is on record as “did not prevent LPS-induced cleavage of GSDMD”.
Turning to `CC(=O)Nc1ccc2c(c1)OCc1cc(-c3ccccc3C#CCCCO)nn1C2` [NA-11], at PFKL (55°C ± 1°C without shift), the “melting temperature of PFKL with compound” value was determined as 59 °C. Also, the “thermal shift in PFKL” value on PFKL (immunoblot) is 4 °C.
